Assay results published in patent US7399760B2, “Pyrimidinedione derivatives” (Bexel Pharmaceuticals Inc., priority 2002, dated 2008).

How the values were obtained:
IL-6 = IL-6 production from LPS-stimulated human monocytes (ELISA); format: cell-based; conditions: Monocyte, Conc. 10 μM
Method: (§1) This assay determines the effect of test compounds on the production of IL-6 from human monocytes. Compounds are tested for their ability to downregulate the production of IL-6 in activated monocytes. Test compounds were incubated for three, six and twenty four hours with human monocytes. Lipopolysaccharide was used to stimulate the monocytes. The level of Interleukin-6 is quantitated using Enzyme-Linked Immunosorbent assay performed in a 96 well format.

TNF-α = TNF-α production from LPS-stimulated human monocytes (ELISA); format: cell-based; conditions: Monocyte, Conc. 10 μM
Method: as §1, with “TNF-α” for “IL-6”, “were” for “are”, “TNF-α was” for “Interleukin-6 is”

COX-2 = biological target: T1, COX-2 (Homo sapiens, UniProt P35354); assay: Human whole blood assay, COX-2 inhibition (PGE2 ELISA after LPS); format: cell-based; conditions: Conc. 1 μM, aspirin-treated, LPS 10 μg/ml, 24 h at 37° C., PGE2 in plasma
T1 construct: incubation of human blood with lipopolysaccharide (LPS), which induces COX-2 production in the blood; endogenous in cells; host or cells: fresh human whole blood from male volunteers, treated with aspirin and then LPS
T1 sequence (P35354 18-604): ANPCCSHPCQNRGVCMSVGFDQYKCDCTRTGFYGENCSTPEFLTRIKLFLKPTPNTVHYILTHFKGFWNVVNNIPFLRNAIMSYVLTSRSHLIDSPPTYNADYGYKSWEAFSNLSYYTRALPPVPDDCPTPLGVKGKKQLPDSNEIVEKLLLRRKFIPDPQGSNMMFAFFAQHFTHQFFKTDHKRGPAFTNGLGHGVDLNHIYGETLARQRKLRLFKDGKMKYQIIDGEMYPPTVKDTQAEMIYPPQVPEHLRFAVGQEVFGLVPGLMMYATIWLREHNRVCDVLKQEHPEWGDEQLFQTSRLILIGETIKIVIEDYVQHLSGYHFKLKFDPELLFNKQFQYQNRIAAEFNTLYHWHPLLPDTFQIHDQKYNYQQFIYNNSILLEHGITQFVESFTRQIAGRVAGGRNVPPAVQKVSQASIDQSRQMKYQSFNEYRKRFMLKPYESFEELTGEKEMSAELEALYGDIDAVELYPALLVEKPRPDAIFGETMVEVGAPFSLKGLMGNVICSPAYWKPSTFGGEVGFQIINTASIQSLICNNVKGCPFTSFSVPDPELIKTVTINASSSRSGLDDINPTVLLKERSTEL
Method: The COX-2 inhibition activity of the compounds illustrated in the examples was determined by the following method.
Human whole blood provides a protein and cell rich milieu appropriate for the study of biochemical efficacy of anti-inflammatory compounds such as selective COX-2 inhibitors. […] This is correlating with the observation that COX-2 inhibitors have no effect on prostaglandin E2 (PGE2) production in normal blood. These inhibitors are active only after incubation of human blood with lipopolysaccharide (LPS), which induces COX-2 production in the blood.
Fresh blood was collected in tubes containing potassium EDTA by vein puncture from male volunteers. The subjects should have no apparent inflammatory conditions and not taken NSAIDs for atleast 7 days prior to blood collection. Blood was treated with aspirin in vitro (10 μg/ml, at time zero) to inactivate COX-1, and then with LPS (10 μg/ml) along with test agents or vehicle. The blood was incubated for 24 h at 37° C., after which the tubes were centrifuged, the plasma was separated and stored at −80° C. (J Pharmacol Exp Ther 271, 1705, 1994; Proc Natl Acad Sci USA 96, 7563, 1999). The plasma was assayed for PGE2 using Cayman ELISA kit as per the procedure outlined by the manufacturer (Cayman Chemicals, Ann Arbor, USA). […]

Compound | melting point | inhibition at 10 µM (IL-6) | inhibition at 10 µM (TNF-α) | inhibition at 1 µM (COX-2)
CSc1ccc(-n2c(-c3ccccc3)cc(=O)[nH]c2=O)cc1 [Example 1, 1-(4-methylsulfanyl-phenyl)-6-phenyl-1H-pyrimidin-2,4-(1H)-dione] | 239 to 242 °C (dec.) | 80.6% | 48.5% | –
CSc1ccc(-n2c(-c3ccc(C)cc3)cc(=O)[nH]c2=O)cc1 [Example 2, 1-(4-methylsulfanyl-phenyl)-6-(4-methylphenyl)-1H-pyrimidin-2,4-(1H)-dione] | 235 to 238 °C | 78.6% | 69.3% | –
CSc1ccc(-n2c(-c3ccc(Cl)cc3)cc(=O)[nH]c2=O)cc1 [Example 3, 1-(4-methylsulfanyl-phenyl)-6-(4-chlorophenyl)-1H-pyrimidin-2,4-(1H)-dione] | 249 to 251 °C | – | – | –
CSc1ccc(-c2cc(=O)[nH]c(=O)n2-c2ccc(C)cc2)cc1 [Example 4, 1-(4-methylphenyl)-6-(4-methylsulfanyl-phenyl)-1H-pyrimidin-2,4-(1H)-dione] | 266 to 268 °C | – | – | –
CSc1ccc(-c2cc(=O)[nH]c(=O)n2-c2ccc(Br)cc2)cc1 [Example 5, 1-(4-bromophenyl)-6-(4-methylsulfanyl-phenyl)-1H-pyrimidin-2,4-(1H)-dione] | 282 to 285 °C | – | – | –
CS(=O)(=O)c1ccc(-n2c(-c3ccccc3)cc(=O)[nH]c2=O)cc1 [Example 6, 1-(4-methylsulfonyl-phenyl)-6-phenyl-pyrimidin-1H-pyrimidin-2,4-(1H)-dione] | 283 to 287 °C (dec.) | 75.3% | 43.2% | –
Cc1ccc(-c2cc(=O)[nH]c(=O)n2-c2ccc(S(C)(=O)=O)cc2)cc1 [Example 7] | 285 to 288 °C | 81.3% | 57.6% | 40.8%
CS(=O)(=O)c1ccc(-n2c(-c3ccc(Cl)cc3)cc(=O)[nH]c2=O)cc1 [Example 8, 6-(4-chlorophenyl)-1-(4-methylsulfonyl-phenyl)-1H-pyrimidin-2,4-(1H)-dione] | 294 to 298 °C | – | – | –
